From US8415469B2, “Compounds and methods for kinase modulation, and indications therefor” (Plexxikon Inc., priority 2005, dated 2013)

Key:
Format in all cases: biochemical
[1] = biological target: T1, Fak (Homo sapiens, UniProt Q05397); assay: AlphaScreen kinase assay, Fak; details: read-out: IC50, activity toward kinase Fak
T1 construct: P1358.pFastBacHtb FAK S411-Q686-X; His6 with pFastBacHTb leader (TEV site) (N); made in house; host or cells: Sf9 (baculovirus)

[2] = biological target: T2, Jnk1 (Homo sapiens, UniProt P45983); assay: AlphaScreen kinase assay, Jnk1; details: read-out: IC50, activity toward kinase Jnk1
T2 construct: purchased Upstate Biotechnology
T2 sequence (P45983 whole entry): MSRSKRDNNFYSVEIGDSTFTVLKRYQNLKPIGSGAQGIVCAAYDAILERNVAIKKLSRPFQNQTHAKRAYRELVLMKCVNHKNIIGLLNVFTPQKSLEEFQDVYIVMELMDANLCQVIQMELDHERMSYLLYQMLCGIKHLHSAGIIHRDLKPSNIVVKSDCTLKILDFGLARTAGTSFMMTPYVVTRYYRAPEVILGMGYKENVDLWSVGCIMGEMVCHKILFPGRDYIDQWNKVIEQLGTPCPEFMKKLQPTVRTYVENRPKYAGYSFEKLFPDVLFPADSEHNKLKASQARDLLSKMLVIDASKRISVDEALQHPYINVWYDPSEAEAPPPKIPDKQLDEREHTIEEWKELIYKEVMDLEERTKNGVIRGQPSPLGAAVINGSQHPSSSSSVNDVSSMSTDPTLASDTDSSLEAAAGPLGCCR

[3] = biological target: T3, Jnk3 (Homo sapiens, UniProt P53779); assay: AlphaScreen kinase assay, Jnk3; details: read-out: IC50, activity toward kinase Jnk3
T3 construct: purchased Upstate Biotechnology
T3 sequence (P53779 whole entry): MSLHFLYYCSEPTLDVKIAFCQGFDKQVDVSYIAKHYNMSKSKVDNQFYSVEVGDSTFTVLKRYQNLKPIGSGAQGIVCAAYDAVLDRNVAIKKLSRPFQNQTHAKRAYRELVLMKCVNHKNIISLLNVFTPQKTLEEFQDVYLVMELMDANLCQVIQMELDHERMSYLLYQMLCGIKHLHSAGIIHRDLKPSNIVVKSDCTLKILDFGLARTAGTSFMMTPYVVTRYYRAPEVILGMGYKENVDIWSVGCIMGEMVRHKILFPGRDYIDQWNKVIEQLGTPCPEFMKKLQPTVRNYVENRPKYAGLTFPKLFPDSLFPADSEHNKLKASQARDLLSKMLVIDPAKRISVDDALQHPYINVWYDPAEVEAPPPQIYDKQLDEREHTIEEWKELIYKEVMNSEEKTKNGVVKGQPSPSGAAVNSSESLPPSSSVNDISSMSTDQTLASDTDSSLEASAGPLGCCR

[4] = biological target: T4, B-Raf V600E (Homo sapiens, UniProt P15056, V600E); assay: AlphaScreen kinase assay, B-Raf V600E; details: read-out: IC50, activity toward kinase B-Raf V600E
T4 construct: P4254. pFastBacBD-CDC37 BRAF D437-K722-X, V600E; His6 with pFastBac HT leader (TEV site) (N); made in house; host or cells: Sf9 (baculovirus; chaperone CDC37 co-expressed)
T4 sequence (P15056 with tags, fused parts or gaps V600E): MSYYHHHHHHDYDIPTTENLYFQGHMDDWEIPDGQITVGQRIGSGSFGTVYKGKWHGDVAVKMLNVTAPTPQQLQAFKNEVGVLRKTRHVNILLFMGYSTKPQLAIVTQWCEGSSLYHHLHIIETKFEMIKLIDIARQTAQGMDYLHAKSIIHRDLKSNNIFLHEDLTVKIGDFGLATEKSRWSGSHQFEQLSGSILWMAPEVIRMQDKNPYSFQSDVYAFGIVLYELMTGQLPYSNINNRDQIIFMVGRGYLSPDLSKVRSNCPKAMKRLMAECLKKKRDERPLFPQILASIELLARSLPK

[5] = biological target: T5, FGFR1 (Homo sapiens, UniProt P11362, C488A/C584S); assay: AlphaScreen kinase assay, FGFR1; details: read-out: IC50, activity toward kinase FGFR
T5 construct: P1351.pET N6 BI-PTP FGFR A458-E765-X C488A, C584S; made in house; host or cells: E. coli (PTP1B co-expressed)
T5 sequence (P11362 458-765 C488A/C584S): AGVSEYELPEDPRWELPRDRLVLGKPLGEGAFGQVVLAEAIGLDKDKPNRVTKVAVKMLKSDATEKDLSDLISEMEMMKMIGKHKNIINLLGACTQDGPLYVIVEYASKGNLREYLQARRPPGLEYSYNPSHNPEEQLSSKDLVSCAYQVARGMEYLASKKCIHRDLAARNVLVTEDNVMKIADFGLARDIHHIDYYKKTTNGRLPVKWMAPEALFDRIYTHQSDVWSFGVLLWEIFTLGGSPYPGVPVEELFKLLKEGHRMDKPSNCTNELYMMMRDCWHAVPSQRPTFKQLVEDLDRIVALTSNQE

[6] = biological target: T6, Fms (Homo sapiens, UniProt P07333); assay: AlphaScreen kinase assay, Fms; details: read-out: IC50, activity toward kinase Fms
T6 construct: purchased Upstate Biotechnology
T6 sequence (P07333 20-972): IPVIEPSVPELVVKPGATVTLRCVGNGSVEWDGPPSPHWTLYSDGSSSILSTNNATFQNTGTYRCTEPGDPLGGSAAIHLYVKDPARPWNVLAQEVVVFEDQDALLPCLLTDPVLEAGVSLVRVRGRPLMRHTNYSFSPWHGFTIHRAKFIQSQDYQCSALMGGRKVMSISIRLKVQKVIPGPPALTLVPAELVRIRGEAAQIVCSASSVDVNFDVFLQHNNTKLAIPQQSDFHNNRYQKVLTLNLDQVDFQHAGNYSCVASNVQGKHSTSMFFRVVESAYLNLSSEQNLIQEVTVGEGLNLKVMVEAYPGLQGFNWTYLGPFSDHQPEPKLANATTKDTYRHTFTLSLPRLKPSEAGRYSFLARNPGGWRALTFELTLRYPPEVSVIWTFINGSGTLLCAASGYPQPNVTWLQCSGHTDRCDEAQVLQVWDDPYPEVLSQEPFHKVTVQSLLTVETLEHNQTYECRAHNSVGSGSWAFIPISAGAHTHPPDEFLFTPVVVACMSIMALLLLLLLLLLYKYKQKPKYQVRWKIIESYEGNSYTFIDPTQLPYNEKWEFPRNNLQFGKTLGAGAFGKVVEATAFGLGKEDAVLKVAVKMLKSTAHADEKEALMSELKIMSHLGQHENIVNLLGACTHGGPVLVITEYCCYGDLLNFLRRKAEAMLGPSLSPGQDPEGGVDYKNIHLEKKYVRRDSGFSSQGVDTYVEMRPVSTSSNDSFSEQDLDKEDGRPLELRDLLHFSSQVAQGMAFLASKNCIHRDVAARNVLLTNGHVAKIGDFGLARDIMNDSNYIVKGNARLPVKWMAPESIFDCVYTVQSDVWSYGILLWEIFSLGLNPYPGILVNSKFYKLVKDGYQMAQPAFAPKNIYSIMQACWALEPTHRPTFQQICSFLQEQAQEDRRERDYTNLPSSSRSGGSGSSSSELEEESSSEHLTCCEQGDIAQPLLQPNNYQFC

[7] = biological target: T7, Kit (Homo sapiens, UniProt P10721); assay: AlphaScreen kinase assay, Kit; details: read-out: IC50, activity toward kinase Kit
T7 construct: P1332.N6 BI PTP KIT M552-K948-X COD; His6 (N); made in house; host or cells: E. coli (PTP1B co-expressed)
T7 sequence (P10721 with tags, fused parts or gaps): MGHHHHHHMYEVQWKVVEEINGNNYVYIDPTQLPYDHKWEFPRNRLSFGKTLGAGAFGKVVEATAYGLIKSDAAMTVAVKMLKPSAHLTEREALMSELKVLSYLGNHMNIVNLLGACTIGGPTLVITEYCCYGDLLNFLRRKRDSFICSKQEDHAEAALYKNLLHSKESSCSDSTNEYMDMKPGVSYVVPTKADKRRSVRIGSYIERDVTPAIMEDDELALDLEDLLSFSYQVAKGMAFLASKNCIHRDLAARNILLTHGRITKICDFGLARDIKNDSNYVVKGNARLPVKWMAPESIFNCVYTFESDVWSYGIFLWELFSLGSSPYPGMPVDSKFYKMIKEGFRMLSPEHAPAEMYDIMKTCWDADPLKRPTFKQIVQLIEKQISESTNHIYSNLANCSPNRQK

[8] = biological target: T8, B-Raf (Homo sapiens, UniProt P15056); assay: AlphaScreen kinase assay, B-Raf; details: read-out: IC50, activity toward kinase B-Raf
T8 construct: purchased Upstate Biotechnology
T8 sequence (P15056 whole entry): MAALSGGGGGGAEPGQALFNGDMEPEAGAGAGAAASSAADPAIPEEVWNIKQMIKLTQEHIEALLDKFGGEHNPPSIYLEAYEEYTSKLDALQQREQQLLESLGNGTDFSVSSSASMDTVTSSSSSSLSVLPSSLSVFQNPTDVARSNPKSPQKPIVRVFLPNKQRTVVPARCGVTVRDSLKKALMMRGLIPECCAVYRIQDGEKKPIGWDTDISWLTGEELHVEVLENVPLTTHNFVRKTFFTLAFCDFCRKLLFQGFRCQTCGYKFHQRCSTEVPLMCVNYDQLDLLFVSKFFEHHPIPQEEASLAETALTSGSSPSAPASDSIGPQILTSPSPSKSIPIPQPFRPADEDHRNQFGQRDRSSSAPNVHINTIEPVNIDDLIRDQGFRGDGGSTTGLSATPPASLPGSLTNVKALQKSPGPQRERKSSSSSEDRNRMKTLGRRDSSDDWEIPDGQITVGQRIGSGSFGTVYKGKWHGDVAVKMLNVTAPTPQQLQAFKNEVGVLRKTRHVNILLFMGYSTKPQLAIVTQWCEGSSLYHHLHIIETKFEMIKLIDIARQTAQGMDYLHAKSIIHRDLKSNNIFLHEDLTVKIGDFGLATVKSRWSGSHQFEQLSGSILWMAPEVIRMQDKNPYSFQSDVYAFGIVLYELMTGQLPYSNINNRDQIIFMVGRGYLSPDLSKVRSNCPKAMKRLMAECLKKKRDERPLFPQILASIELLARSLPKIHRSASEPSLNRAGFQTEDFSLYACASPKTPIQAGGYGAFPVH

[9] = biological target: T9, Src (Homo sapiens, UniProt P12931); assay: AlphaScreen kinase assay, Src; details: read-out: IC50, activity toward kinase Src
T9 construct: P1144. pET-N6 BI-PTP SRC V86-L536-X; made in house
T9 sequence (P12931 with tags, fused parts or gaps): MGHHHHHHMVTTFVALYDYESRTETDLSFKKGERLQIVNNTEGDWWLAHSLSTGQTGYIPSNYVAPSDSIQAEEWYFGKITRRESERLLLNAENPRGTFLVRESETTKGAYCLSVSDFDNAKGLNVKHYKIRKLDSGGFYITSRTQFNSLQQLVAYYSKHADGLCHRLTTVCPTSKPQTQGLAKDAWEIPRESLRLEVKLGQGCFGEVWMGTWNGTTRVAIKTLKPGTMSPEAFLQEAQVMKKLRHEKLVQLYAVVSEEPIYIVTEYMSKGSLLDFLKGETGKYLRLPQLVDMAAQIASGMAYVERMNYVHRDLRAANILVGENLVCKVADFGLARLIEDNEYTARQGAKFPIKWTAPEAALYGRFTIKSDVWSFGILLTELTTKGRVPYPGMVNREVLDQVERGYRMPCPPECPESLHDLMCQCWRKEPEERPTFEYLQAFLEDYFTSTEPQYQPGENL

[10] = biological target: T10, Kdr (Homo sapiens, UniProt P35968); assay: Z'-Lyte FRET kinase assay (Invitrogen), Kdr; details: read-out: IC50, activity toward kinase Kdr
T10 construct: purchased Invitrogen (assay run by Invitrogen)

[11] = biological target: T11, Ret (Homo sapiens, UniProt P07949); assay: AlphaScreen kinase assay, Ret; details: read-out: IC50, activity toward kinase Ret
T11 construct: P1378.pET-SF BI-PTP RET H661-R1012 HIS; made in house
T11 sequence (P07949 with tags, fused parts or gaps): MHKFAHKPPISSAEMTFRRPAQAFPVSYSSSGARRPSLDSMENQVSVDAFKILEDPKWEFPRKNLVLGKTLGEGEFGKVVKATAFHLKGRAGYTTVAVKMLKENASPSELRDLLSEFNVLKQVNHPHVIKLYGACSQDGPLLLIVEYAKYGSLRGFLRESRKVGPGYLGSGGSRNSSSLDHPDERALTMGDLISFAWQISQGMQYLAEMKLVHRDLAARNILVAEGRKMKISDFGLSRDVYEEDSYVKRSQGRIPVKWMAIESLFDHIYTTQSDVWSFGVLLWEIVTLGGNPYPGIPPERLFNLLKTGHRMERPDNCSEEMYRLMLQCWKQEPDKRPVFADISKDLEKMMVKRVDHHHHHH

[12] = biological target: T12, c-Raf-1 (Homo sapiens, UniProt P04049); assay: AlphaScreen kinase assay, c-Raf-1; details: read-out: IC50, activity toward kinase c-Raf-1
T12 construct: purchased Upstate Biotechnology

[13] = biological target: T13, Flt1 (Homo sapiens, UniProt P17948); assay: AlphaScreen kinase assay, Flt1; details: read-out: IC50, activity toward kinase Flt1
T13 construct: P1826.pETN6 BI-PTP FLT1 M799-D1165-X WT; His6 (N); made in house; host or cells: E. coli (PTP1B co-expressed)
T13 sequence (P17948 with tags, fused parts or gaps): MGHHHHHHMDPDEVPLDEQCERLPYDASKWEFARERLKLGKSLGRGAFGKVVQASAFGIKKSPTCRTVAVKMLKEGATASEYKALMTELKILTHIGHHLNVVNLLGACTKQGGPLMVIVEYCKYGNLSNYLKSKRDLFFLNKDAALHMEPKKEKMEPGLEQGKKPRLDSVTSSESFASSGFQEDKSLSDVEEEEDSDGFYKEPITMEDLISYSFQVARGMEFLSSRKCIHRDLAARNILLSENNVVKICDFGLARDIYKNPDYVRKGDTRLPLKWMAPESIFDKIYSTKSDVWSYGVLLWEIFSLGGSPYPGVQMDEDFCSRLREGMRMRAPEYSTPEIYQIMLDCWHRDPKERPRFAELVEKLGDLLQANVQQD

T1 sequence (Q05397 411-686): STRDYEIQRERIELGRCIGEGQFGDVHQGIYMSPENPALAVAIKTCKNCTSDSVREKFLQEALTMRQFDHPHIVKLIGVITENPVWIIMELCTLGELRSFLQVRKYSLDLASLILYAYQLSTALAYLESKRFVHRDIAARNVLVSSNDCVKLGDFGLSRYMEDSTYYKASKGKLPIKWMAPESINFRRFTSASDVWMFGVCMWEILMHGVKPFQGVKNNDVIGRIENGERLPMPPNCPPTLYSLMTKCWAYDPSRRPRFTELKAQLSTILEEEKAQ

| IC50 [1] [µM] | IC50 [2] [µM] | IC50 [3] [µM] | IC50 [4] [µM] | IC50 [5] [µM] | IC50 [6] [µM] | IC50 [7] [µM] | IC50 [8] [µM] | IC50 [9] [µM] | IC50 [10] [µM] | IC50 [11] [µM] | IC50 [12] [µM] | IC50 [13] [µM] | SMILES |
| --- | --- | --- | --- | --- | --- | --- | --- | --- | --- | --- | --- | --- | --- |
| ≤ 10 | ≤ 10 | ≤ 10 |  |  |  |  |  |  |  |  |  |  | c1cc2ccc(Nc3ccc(N4CCCCC4)cc3)nc2[nH]1 [Compound P-1359, (4-Piperidin-1-yl-phenyl)-(1H-pyrrolo[2,3-b]pyridin-6-yl)-amine] |
| ≤ 10 |  |  | ≤ 10 | ≤ 10 | ≤ 10 | ≤ 10 |  |  |  |  |  |  | COc1cccc(Cc2c[nH]c3ncc(-c4ccccc4)cc23)c1F [Compound P-1323, 3-(2-Fluoro-3-methoxy-benzyl)-5-phenyl-1H-pyrrolo[2,3-b]pyridine] |
| ≤ 10 |  |  | ≤ 10 | ≤ 10 | ≤ 10 | ≤ 10 | ≤ 10 | ≤ 10 |  |  |  |  | CCCCS(=O)(=O)Nc1ccc(F)c(C(=O)c2c[nH]c3ncc(Br)cc23)c1F [Compound P-1263, Butane-1-sulfonic acid [3-(5-bromo-1H-pyrrolo[2,3-b]pyridine-3-carbonyl)-2,4-difluoro-phenyl]-amide] |
| ≤ 10 |  |  | ≤ 10 | ≤ 10 | ≤ 10 | ≤ 10 | ≤ 10 |  | ≤ 10 | ≤ 10 |  |  | O=C(c1ccccc1F)c1c[nH]c2ncc(Br)cc12 [Compound P-0293] |
| ≤ 10 |  |  | ≤ 10 | ≤ 10 | ≤ 10 | ≤ 10 |  | ≤ 10 |  |  |  |  | Clc1cccc(Cl)c1Cc1c[nH]c2ncc(-c3cccnc3)cc12 [Compound P-1478, 3-(2,6-Dichloro-benzyl)-5-pyridin-3-yl-1H-pyrrolo[2,3-b]pyridine] |
| ≤ 10 | ≤ 10 | ≤ 10 | ≤ 10 | ≤ 10 | ≤ 10 | ≤ 10 | ≤ 10 |  |  |  | ≤ 10 |  | COCCOc1ccc(F)c(Cc2c[nH]c3ncc(-c4cccnc4)cc23)c1F [Compound P-1458] |
| ≤ 10 |  |  |  | ≤ 10 | ≤ 10 | ≤ 10 |  |  |  |  |  |  | Fc1cccc(F)c1Cc1c[nH]c2ncccc12 [Compound P-1482, 3-(2,6-Difluoro-benzyl)-1H-pyrrolo[2,3-b]pyridine] |
| ≤ 10 | ≤ 10 |  | ≤ 10 | ≤ 10 | ≤ 10 | ≤ 10 |  |  |  |  |  |  | O=[N+]([O-])c1cccc(Cc2c[nH]c3ncc(-c4cccnc4)cc23)c1 [Compound P-1402, 3-(3-nitro-benzyl)-5-pyridin-3-yl-1H-pyrrolo[2,3-b]pyridine] |
| ≤ 10 | ≤ 10 |  | ≤ 10 | ≤ 10 | ≤ 10 | ≤ 10 | ≤ 10 |  |  |  | ≤ 10 |  | COCCOc1ccc(F)c(C(=O)c2c[nH]c3ncc(-c4cccnc4)cc23)c1F [Compound P-1456, [2,6-Difluoro-3-(2-methoxy-ethoxy)-phenyl]-(5-pyridin-3-yl-1H-pyrrolo[2,3-b]pyridin-3-yl)-methanone] |
| ≤ 10 |  |  | ≤ 10 | ≤ 10 | ≤ 10 | ≤ 10 |  |  |  |  |  |  | Brc1cnc2[nH]cc(Cc3ccc4c(c3)OCCO4)c2c1 [Compound P-1474, 5-Bromo-3-(2,3-dihydro-benzo[1,4]dioxin-6-ylmethyl)-1H-pyrrolo[2,3-b]pyridine] |
| ≤ 10 |  |  |  |  | ≤ 10 |  |  |  |  |  |  | ≤ 10 | FC(F)(F)Oc1ccc(Nc2c[nH]c3ncccc23)cc1 [Compound P-1492, (1H-Pyrrolo[2,3-b]pyridin-3-yl)-(4-trifluoromethoxy-phenyl)-amine] |
| ≤ 10 |  |  |  | ≤ 10 | ≤ 10 | ≤ 10 |  |  |  |  |  |  | OC(c1ccccc1F)c1c[nH]c2ncc(Br)cc12 (stereo not drawn) [Compound P-1321] |
| ≤ 10 |  |  | ≤ 10 | ≤ 10 | ≤ 10 | ≤ 10 |  |  |  |  |  |  | OCCOc1ccc(F)c(Cc2c[nH]c3ncc(Br)cc23)c1F [Compound P-1392, 2-[3-(5-Bromo-1H-pyrrolo[2,3-b]pyridin-3-ylmethyl)-2,4-difluoro-phenoxy]-ethanol] |
| ≤ 10 |  |  |  |  |  |  |  |  |  |  |  |  | Cc1[nH]c2ncccc2c1-c1ccco1 [Compound P-1190] |
| ≤ 10 |  |  |  |  |  |  |  |  |  |  |  |  | Cc1[nH]c2ncccc2c1-c1ccc(C(C)C)cc1 [Compound P-1083] |
| ≤ 10 |  |  | ≤ 10 |  | ≤ 10 | ≤ 10 |  |  |  |  |  |  | Cc1cccc(C)c1Cc1c[nH]c2ncccc12 [Compound P-0333, 3-(2,6-Dimethyl-benzyl)-1H-pyrrolo[2,3-b]pyridine] |
| ≤ 10 |  |  |  |  | ≤ 10 | ≤ 10 |  |  |  |  |  |  | NS(=O)(=O)c1cccc(Nc2c[nH]c3ncccc23)c1 [Compound P-1500, 3-(1H-Pyrrolo[2,3-b]pyridin-3-ylamino)-benzenesulfonamide] |
| ≤ 10 |  |  | ≤ 10 | ≤ 10 | ≤ 10 | ≤ 10 | ≤ 10 |  |  |  |  |  | COc1ccc(Cc2c[nH]c3ncc(-c4cccc(C(N)=O)c4)cc23)c(F)c1 [Compound P-1341] |
| ≤ 10 |  |  |  |  | ≤ 10 | ≤ 10 |  |  |  |  |  | ≤ 10 | Clc1cc(Cl)cc(Nc2c[nH]c3ncccc23)c1 [Compound P-1502, (3,5-Dichloro-phenyl)-(1H-pyrrolo[2,3-b]pyridin-3-yl)-amine] |
| ≤ 10 |  |  | ≤ 10 | ≤ 10 | ≤ 10 | ≤ 10 |  |  |  |  |  |  | COc1cccc(Cc2c[nH]c3ncc(-c4cccc(NS(C)(=O)=O)c4)cc23)c1F [Compound P-1329, N-{3-[3-(2-Fluoro-3-methoxy-benzyl)-1H-pyrrolo[2,3-b]pyridin-5-yl]-phenyl}-methanesulfonamide] |
| ≤ 10 | ≤ 10 | ≤ 10 |  |  | ≤ 10 | ≤ 10 |  |  |  |  |  |  | CN(c1ccc(F)c(C(O)c2c[nH]c3ncc(-c4cccnc4)cc23)c1F)S(=O)(=O)c1ccc(C(F)(F)F)cc1 (stereo not drawn) [Compound P-1400] |
| ≤ 10 |  |  |  |  |  |  |  |  |  |  |  |  | Cc1cc(C)cc(-c2c(C)[nH]c3ncccc23)c1 [Compound P-1054] |
| ≤ 10 |  |  | ≤ 10 | ≤ 10 | ≤ 10 | ≤ 10 | ≤ 10 |  |  |  | ≤ 10 |  | COCCOc1ccc(F)c(C(O)c2c[nH]c3ncc(Br)cc23)c1F (stereo not drawn) [Compound P-1452] |
| ≤ 10 |  |  | ≤ 10 | ≤ 10 | ≤ 10 | ≤ 10 | ≤ 10 | ≤ 10 |  |  |  |  | CCCCS(=O)(=O)Nc1ccc(F)c(C(=O)c2c[nH]c3ncc(OC)cc23)c1F [Compound P-1264, Butane-1-sulfonic acid [2,4-difluoro-3-(5-methoxy-1H-pyrrolo[2,3-b]pyridine-3-carbonyl)-phenyl]-amide] |
